# Reference: US4474748A, “Medicaments potentiated with phenyl alkanols” (priority 1981, dated 1984)
# Where two headings read alike, the source gives them in different places.
# What was measured:
# C. albicans = test: Killing efficacy in the presence of citrated human blood, C. albicans; assay type: cell-based
# Description: (§1) A series of the following four solutions was prepared in accordance with the foregoing procedure: […]
# S. aureus = test: Bactericidal (killing) efficacy in the presence of citrated human blood, S. aureus; assay type: cell-based; conditions: Table II
# Description: as §1
# C. acnes = test: Bactericidal (killing) efficacy in the presence of citrated human blood, C. acnes; assay type: cell-based; conditions: Table II
# Text: In a similar manner, additional antimicrobial compositions of this invention have been tested and a summary of the test results appears in Table II.
# P. aeruginosa = test: Bactericidal (killing) efficacy in the presence of citrated human blood, P. aeruginosa; assay type: cell-based; conditions: Table I, 40% ethanol
# Description: as §1
# [1] = preparation containing 20% benzocaine; intact skin; cited from earlier work
# Staphylococcus aureus = test: Topical staphylococcal infection in rats; assay type: in vivo, Staphylococcus aureus in rats; conditions: for Abscess formation (share of animals): topical staphylococcal infection
# Text: In tests and operative techniques carried out according to the procedure set forth in F. Goldschmidt, Reproducible Topical Staphylococcal Infection in Rats, Applied Microbiology, 23, No. 1, p.
# [2] = stratum corneum; previous studies; cited from earlier work
# intact human skin = conditions: alcohol potentiators 10%
# Description: To illustrate the enhanced penetration of the topical compositions of the invention, the following formulation was employed to prepare compositions which were then tested in a standardized skin blanching test wherein the degree of blanching corresponds to the degree of penetration.
smiles,measurement,setting,value
CC[C@H]1OC(=O)[C@H](C)[C@@H](O[C@H]2C[C@@](C)(OC)[C@@H](O)[C@H](C)O2)[C@H](C)[C@@H](O[C@@H]2O[C@H](C)C[C@H](N(C)C)[C@H]2O)[C@](C)(O)C[C@@H](C)C(=O)[C@H](C)[C@@H](O)[C@]1(C)O [Erythromycin],Number of Cells Survived,"C. albicans; Table II, 0.025%, 1 minute",7.2 × 10^8 cells
same,Number of Cells Survived,"C. albicans; Table II, 0.025%, 10 minutes",7.1 × 10^8 cells
same,Number of Cells Survived,"C. albicans; Table II, 0.025%, 30 minutes",9.2 × 10^7 cells
same,Number of Cells Survived,"S. aureus; 0.025%, 1 minute",4.9 × 10^7 cells
same,Number of Cells Survived,"S. aureus; 0.025%, 10 minutes",4.6 × 10^7 cells
same,Number of Cells Survived,"S. aureus; 0.025%, 30 minutes",4.3 × 10^ 7 cells
same,Number of Cells Survived,"C. acnes; 0.0125%, 1 minute",22 × 10^5 cells
same,Number of Cells Survived,"C. acnes; 0.0125%, 10 minutes",21 × 10^5 cells
same,Number of Cells Survived,"C. acnes; 0.0125%, 30 minutes",18 × 10^5 cells
COC1=CC(=O)C[C@@H](C)[C@]12Oc1c(Cl)c(OC)cc(OC)c1C2=O [Griseofulvin],Number of Cells Survived,"C. acnes; 0.0125%, 1 minute",94 × 10^5 cells
same,Number of Cells Survived,"C. acnes; 0.0125%, 10 minutes",99 × 10^5 cells
same,Number of Cells Survived,"C. acnes; 0.0125%, 30 minutes",92 × 10^5 cells
[O-][n+]1ccccc1[S-].[O-][n+]1ccccc1[S-].[Zn+2] [Zn--omadine],Number of Cells Survived,"C. albicans; Table I, contact time 1 minute, human blood, 40% ethanol",9 × 10^8 cells
same,Number of Cells Survived,"C. albicans; Table I, contact time 10 minutes, human blood, 40% ethanol",8.0 × 10^8 cells
same,Number of Cells Survived,"C. albicans; Table I, contact time 30 minutes, human blood, 40% ethanol",7 × 10^8 cells
N=C(NCCCCCCNC(=N)NC(=N)Nc1ccc(Cl)cc1)NC(=N)Nc1ccc(Cl)cc1 [Hibitane],Number of Cells Survived,"C. acnes; 0.0125%, 1 minute",45 × 10^6 cells
same,Number of Cells Survived,"C. acnes; 0.0125%, 10 minutes",51 × 10^5 cells
same,Number of Cells Survived,"C. acnes; 0.0125%, 30 minutes",0 cells
CO[C@H]1/C=C/O[C@@]2(C)Oc3c(C)c(O)c4c(O)c(c(/C=N/N5CCN(C)CC5)c(O)c4c3C2=O)NC(=O)/C(C)=C\C=C\[C@H](C)[C@H](O)[C@@H](C)[C@@H](O)[C@@H](C)[C@H](OC(C)=O)[C@@H]1C [Rifampicin],Number of Cells Survived,"C. acnes; 0.0125%, 1 minute",17 × 10^6 cells
same,Number of Cells Survived,"C. acnes; 0.0125%, 10 minutes",17 × 10^6 cells
same,Number of Cells Survived,"C. acnes; 0.0125%, 30 minutes",13 × 10^6 cells
"OCCC1CCCCC1 [2-Cyclohexylethanol, 2-cyclohexylethanol]",Number of Cells Survived,P. aeruginosa; contact time 1 minute,1.1 × 10^6 cells
same,Number of Cells Survived,P. aeruginosa; contact time 10 minutes,7.8 × 10^4 cells
same,Number of Cells Survived,P. aeruginosa; contact time 30 minutes,4.8 × 10^4 cells
"O=C(Nc1ccc(Br)cc1)c1cc(Br)cc(Br)c1O [Temasept IV, 3,4',5tribromosalicylanilide]",Number of Cells Survived,"S. aureus; 0.05%, 1 minute",4.2 × 10^8 cells
same,Number of Cells Survived,"S. aureus; 0.05%, 10 minutes",4.0 × 10^8 cells
same,Number of Cells Survived,"S. aureus; 0.05%, 30 minutes",1.2 × 10^8 cells
CCOC(=O)c1ccc(N)cc1 [benzocaine],Surface anesthesia,[1],effective to cause surface anesthesia
Cc1cc(N)c2ccccc2[n+]1CCCCCCCCCC[n+]1c(C)cc(N)c2ccccc21 [Dequalinium chloride],Number of Cells Survived,"C. acnes; 0.00125%, 1 minute",26 × 10^5 cells
same,Number of Cells Survived,"C. acnes; 0.00125%, 10 minutes",14 × 10^2 cells
same,Number of Cells Survived,"C. acnes; 0.00125%, 30 minutes",30 cells
N[C@@H]1CON=C1O [Cycloserine],Number of Cells Survived,"S. aureus; 0.0125%, 1 minute",60 × 10^7 cells
same,Number of Cells Survived,"S. aureus; 0.0125%, 10 minutes",60 × 10^7 cells
same,Number of Cells Survived,"S. aureus; 0.0125%, 30 minutes",60 × 10^7 cells
"O=C(Nc1ccc(Cl)cc1)Nc1ccc(Cl)c(Cl)c1 [3,4,4'-Chlorocarbanilide]",Number of Cells Survived,"S. aureus; 0.05%, 1 minute",6.1 × 10^7 cells
same,Number of Cells Survived,"S. aureus; 0.05%, 10 minutes",5.2 × 10^7 cells
same,Number of Cells Survived,"S. aureus; 0.05%, 30 minutes",3.0 × 10^7 cells
CCCCCCCCCCCC[N+](C)(C)CCOc1ccccc1 [Domiphen bromide],Animals from which S. aureus could be recovered,Staphylococcus aureus; 10^5 or more cells per gram of excised body wall,82.3%
same,Abscess formation (share of animals),Staphylococcus aureus; rats,82.3%
CN(C)C1C(=O)C(C(N)=O)=C(O)C2(O)C(=O)C3=C(O)c4c(O)cccc4C(C)(O)C3CC12 (stereo not drawn) [Tetracycline],Number of Cells Survived,"C. albicans; Table II, 0.05%, 1 minute",4.3 × 10^7 cells
same,Number of Cells Survived,"C. albicans; Table II, 0.05%, 10 minutes",3.9 × 10^7 cells
same,Number of Cells Survived,"C. albicans; Table II, 0.05%, 30 minutes",3.6 × 10^7 cells
same,Number of Cells Survived,"S. aureus; 0.05%, 1 minute",4.2 × 10^8 cells
same,Number of Cells Survived,"S. aureus; 0.05%, 10 minutes",4.1 × 10^8 cells
same,Number of Cells Survived,"S. aureus; 0.05%, 30 minutes",3.8 × 10^7 cells
CCCCCCCCCCCCC[N+](C)(C)Cc1ccccc1 [Benzalkonium chloride],Number of Cells Survived,"S. aureus; 0.05%, 1 minute",9.0 × 10^5 cells
same,Number of Cells Survived,"S. aureus; 0.05%, 10 minutes",1.0 × 10^5 cells
same,Number of Cells Survived,"S. aureus; 0.05%, 30 minutes",2.9 × 10^3 cells
"C[S+](C)[O-] [dimethylsulfoxide (DMSO), dimethylsulfoxide]",Absorption of topically applied drugs,[2],can enhance the absorption of topically applied drugs through the stratum corneum
CNC[C@H](O)c1ccc(O)c(O)c1 [Epinephrine (E)],Skin blanching score (penetration of epinephrine),intact human skin; 10 min after application,0
same,Skin blanching score (penetration of epinephrine),intact human skin; 20 min after application,0-1
same,Skin blanching score (penetration of epinephrine),intact human skin; 30 min after application,0
same,Skin blanching score (penetration of epinephrine),intact human skin; 40 min after application,0
same,Skin blanching score (penetration of epinephrine),intact human skin; 50 min after application,0
same,Skin blanching score (penetration of epinephrine),intact human skin; 60 min after application,0
O=c1[nH]c(=O)n([C@H]2C[C@H](O)[C@@H](CO)O2)cc1I [5-iodo-2-deoxyuridine],Number of Cells Survived,"S. aureus; 0.2%, 1 minute",30 × 10^7 cells
same,Number of Cells Survived,"S. aureus; 0.2%, 10 minutes",30 × 10^7 cells
same,Number of Cells Survived,"S. aureus; 0.2%, 30 minutes",30 × 10^7 cells
"CCCC(C)C(C)(C)O (stereo not drawn) [2,3-Dimethyl-2-hexanol, 2,3-dimethyl-2-hexanol]",Number of Cells Survived,P. aeruginosa; contact time 1 minute,8.5 × 10^6 cells
same,Number of Cells Survived,P. aeruginosa; contact time 10 minutes,7.6 × 10^6 cells
same,Number of Cells Survived,P. aeruginosa; contact time 30 minutes,5.1 × 10^6 cells
"CCC(O)C1CCCCC1 (stereo not drawn) [1-Cyclohexyl-1-propanol, 1-cyclohexyl-1-propanol]",Recoverable Staphylococcus aureus,"Staphylococcus aureus; 3.0%, alone, rats",≥ 10^6 cells per gram of excised body wall
same,Abscess formation (share of animals),Staphylococcus aureus; rats,100%
